Where two headings read alike, the source gives them in different places.
How the values were obtained:
Assay type in all cases: cell-based
RSV strain A2 = experiment: RSV HEp-2 EC50 (infectious cytopathic cell protection assay); settings: HEp-2 cells, RSV A2, 4 days, read-out: RSV HEp-2 EC50
Method: Antiviral activity against RSV is determined using an infectious cytopathic cell protection assay in HEp-2 cells. In this assay, compounds inhibiting viral infection and/or replication produce a cytoprotective effect against the virus-induced cell killing that can be quantified using a cell viability reagent. The techniques used here are novel adaptations of methods described in published literature (Chapman et al., Antimicrob Agents Chemother. 2007, 51(9):3346-53.)
HEp-2 cells are obtained from ATCC (Manassas, VI) and maintained in MEM media supplemented with 10% fetal bovine serum and penicillin/streptomycin. Cells are passaged twice a week and kept at subconfluent stage. Commercial stock of RSV strain A2 (Advanced Biotechnologies, Columbia, MD) is titered before compound testing to determine the appropriate dilution of the virus stock that generates desirable cytopathic effect in HEp-2 cells.
For antiviral tests, HEp-2 cells are grown in large cell culture flasks to near confluency but not fully so. The compounds to be tested are prediluted in DMSO in 384-well compound dilution plates, either in an 8 or 40 sample per plate standardized dose response format. 3-fold serial dilution increments of each test compound are prepared in the plates and test samples are transferred via acoustic transfer apparatus (Echo, Labcyte) at 100 nL per well into cell culture assay 384-well plates. Each compound dilution is transferred in single or quadruplicate samples into dry assay plates, which are stored until assay is ready to go. The positive and negative controls are laid out in opposite on ends of the plate in vertical blocks (1 column).
Subsequently, an infectious mixture is prepared using an appropriate dilution of virus stock previously determined by titration with cells at a density of 50,000/ml and 20 µL/well is added to test plates w/compounds via automation (uFlow, Biotek). Each plate includes negative and positive controls (16 replicates each) to create 0% and 100% virus inhibition standards, respectively. Following the infection with RSV, testing plates are incubated for 4 days in a 37° C. cell culture incubator. After the incubation, a cell viability reagent, Cell TiterGlo (Promega, Madison, WI) is added to the assay plates, which are incubated briefly, and a luminescent readout is measured (Envision, Perkin Elmer) in all the assay plates. The RSV-induced cytopathic effect, percentage inhibition, is determined from the levels of remaining cell viability. […] Various potent anti-RSV tool compounds are used as positive controls for antiviral activity.

HRV16 = HRV16 HELA EC50 (cytopathic effect in H1-HeLa cells)
Method: H1-HeLa cells, cultured in complete DMEM medium containing 10% heat-inactivated FBS and 1% Penicillin/Streptomycin, were seeded in 96 well plates at 3000 cells/well one day prior to compound dosing and infection. The antiviral activity of each compound was measured in triplicate. Compounds were added directly to the cell cultures in serial 3-fold dilutions using the HP300 digital dispenser (Hewlett Packard, Palo Alto, CA) immediately prior to infection. The plates were transferred to BSL-2 containment and the appropriate dilution of virus stock, previously determined by titration and prepared in cell culture media, was added to test plates containing cells and serially diluted compounds. Each plate included 6 wells of infected untreated cells and 6 wells of uninfected cells that served as 0% and 100% virus inhibition control, respectively. Following the infection, test plates were incubated for 96 h in a tissue culture incubator set to 33° C./5% CO2. Following incubation, the H1-HeLa cells were removed from incubation and allowed to equilibrate to 25° C. Cell viability was determined by removing 100 μL of culture medium and adding 100 μL of Cell-Titer Glo viability reagent. The mixtures were incubated on a shaker for 10 minutes at 25° C., and the luminescence signal was quantified on an Envision luminescence plate reader.

DENV2 replicon = experiment: DENV-2 Huh-7 Rep EC50 (replicon luminescence); settings: Dengue virus, DENV2, Huh-7, 48 h, read-out: DENV-2 Huh-7 Rep EC50
Method: In 384 well plates (Greiner, Cat #781091), compounds were acoustically transferred at 200 nl per well in a 8 compound (4 replicates) or 40 compound dose response format (3 replicates). For all plates tested, Balapiravir, GS-5734 and NITD008 were included as positive inhibition controls alongside 0% inhibition, DMSO-only negative control wells. Following compound addition, Huh-7 cells containing the DENV2 replicon construct were harvested following standard cell culture procedures and were adjusted to a concentration of 1.25E5 cells/mL in cell culture media composed of cDMEM without genticin. 40 μL of the cell stock was then added to each well for a final cell density of 5,000 cells/well. Cell and compound mixtures were incubated at 37° C./5% CO2 for 48 hours. Prior to harvesting cells, EnduRen Live Cell Substrate (Promega, Cat #E6481) was prepared by suspending 3.4 mg into 100 uL of DMSO to generate a 60 mM stock solution. The stock solution was then diluted 1:200 in pre-warmed cDMEM and 10 uL of this diluted solution was added to each well of the 384 well plates. Plates were then centrifuged at 500 rpm briefly and were placed on a plate shaker for 2 min. Following mixing, plates were incubated at […] for 1.5 hours prior to measuring luminescence on an Envision luminometer.

RSV A2 = experiment: RSV NHBE EC50 (RSV A2 antiviral assay in normal human bronchial epithelial cells); settings: NHBE cells, RSV A2, 4 days, read-out: RSV NHBE EC50
Method: Normal human bronchial epithelial (NHBE) cells were purchased from Lonza (Walkersville, MD, Cat #CC-2540) and cultured in Bronchial Epithelial Growth Media (BEGM) (Lonza, Walkersville, MD, Cat #CC-3170). The cells were passaged 1-2 times per week to maintain <80% confluency. The NHBE cells were discarded after 6 passages in culture.
To conduct the RSV A2 antiviral assay, NHBE cells were plated in 96-well plates at a density of 7,500 cells per well in BEGM and allowed to attach overnight at 37° C. Following attachment, 100 μL of cell culture media was removed and 3-fold serially diluted compound was added using a Hewlett-Packard D300 Digital Dispenser. The final concentration of DMSO was normalized to 0.05%. Following compound addition, the NHBE cells were infected by the addition of 100 μL of RSV A2 at a titer of 1×10^4.5 tissue culture infectious doses/mL in BEGM and then incubated at 37° C. for 4 days. […] The mixtures were incubated for 10 minutes at 25° C., and the luminescence signal was quantified on an Envision luminescence plate reader.

[1] = human respiratory syncytial virus, HEp-2, 96 h
[2] = 96 h, H1-HeLa cells, 33° C., read-out: HRV16 HELA EC50
[3] = human respiratory syncytial virus, NHBE, 96 h
[4] = human respiratory syncytial virus, 96 h
[5] = H1-HeLa cells, 96 h, 33° C.; read-out: HRV16 HELA EC50

`C[C@H](NP(=O)(OC[C@@]1(C#N)O[C@@H](c2ccc3c(N)ncnn23)[C@H](O)[C@@H]1O)Oc1ccccc1)C(=O)O[C@H]1CCN(C)C1` (stereo partly drawn) [Example 15, (S)-1-methylpyrrolidin-3-yl ((((2R,3S,4R,5S)-5-(4-aminopyrrolo[2,1-f][1,2,4]triazin-7-yl)-2-cyano-3,4-dihydroxytetrahydrofuran-2-yl)methoxy)(phenoxy)phosphoryl)-L-alaninate] was tested, and the EC50 (RSV strain A2; [1]) was 4330 nM, the EC50 (HRV16; [2]) was 11400 nM and the EC50 (DENV2 replicon; Huh-7 replicon cells, 48 hours) was over 50000 nM. For the same molecule, the EC50 (RSV A2; [3]) was 3260 nM.

`C[C@H](NP(=O)(N[C@@H](C)C(=O)OCc1ccccc1)OC[C@@]1(C#N)O[C@@H](c2ccc3c(N)ncnn23)[C@H](O)[C@@H]1O)C(=O)OCc1ccccc1` [Example 219] gave an EC50 (RSV strain A2; [4]) of 1760 nM, an EC50 (HRV16; [5]) of 6040 nM and an EC50 (DENV2 replicon) of over 50000 nM. For the same molecule, the EC50 (RSV A2; [4]) was 178 nM.

In the case of `C[C@H](NP(=O)(N[C@@H](C)C(=O)OCC1CC1)OC[C@@]1(C#N)O[C@@H](c2ccc3c(N)ncnn23)[C@H](O)[C@@H]1O)C(=O)OCC1CC1` [Example 214, ((2R,3S,4R,5S)-5-(4-aminopyrrolo[2,1-f][1,2,4]triazin-7-yl)-2-cyano-3,4-dihydroxytetrahydrofuran-2-yl)methyl bis-cyclopropylmethyl L-alaninate phosphate], the EC50 (RSV strain A2; [4]) is reported as 2940 nM, the EC50 (HRV16; [5]) is reported as 25800 nM and the EC50 (DENV2 replicon) is reported as over 50000 nM. For the same molecule, the EC50 (RSV A2; [4]) was 551 nM.

In the case of `C[C@H](NP(=O)(N[C@@H](C)C(=O)OC1CCCCC1)OC[C@@]1(C#N)O[C@@H](c2ccc3c(N)ncnn23)[C@H](O)[C@@H]1O)C(=O)OC1CCCCC1` [Example 14], the EC50 (RSV strain A2; [4]) is reported as 3650 nM, the EC50 (HRV16; [5]) is reported as 12400 nM and the EC50 (DENV2 replicon) is reported as over 100000 nM. The EC50 (RSV A2; [4]) was 1270 nM.

With `CC(C)OC(=O)[C@H](C)N[P@@](=O)(OC[C@@]1(C#N)O[C@@H](c2ccc3c(N)ncnn23)[C@H](O)[C@@H]1O)Oc1ccccc1` (single isomer, unassigned) [Example 78] the EC50 (RSV strain A2; [1]) was 2040 nM, the EC50 (HRV16; [2]) was 2260 nM and the EC50 (DENV2 replicon; Huh-7 replicon cells, 48 hours) was over 50000 nM. For the same molecule, the EC50 (RSV A2; [3]) was 1770 nM.

With `C[C@H](NP(=O)(OC[C@@]1(C#N)O[C@@H](c2ccc3c(N)ncnn23)[C@H](O)[C@@H]1O)Oc1ccccc1)C(=O)OC1CCC(F)(F)CC1` (mixture of isomers) [Example 174, 4,4-difluorocyclohexyl ((((2R,3S,4R,5S)-5-(4-aminopyrrolo[2,1-f][1,2,4]triazin-7-yl)-2-cyano-3,4-dihydroxytetrahydrofuran-2-yl)methoxy)(phenoxy)phosphoryl)-L-alaninate] the EC50 (RSV strain A2; [1]) was 257 nM, the EC50 (HRV16; [2]) was 748 nM and the EC50 (DENV2 replicon; Huh-7 replicon cells, 48 hours) was 33800 nM. The EC50 (RSV A2; [3]) was 1390 nM.

`CC(C)OC(=O)[C@H](C)N[P@](=O)(OC[C@@]1(C#N)O[C@@H](c2ccc3c(N)ncnn23)[C@H](O)[C@@H]1O)Oc1ccccc1` (single isomer, unassigned) [Example 1] gave an EC50 (RSV strain A2; [1]) of 342 nM, an EC50 (HRV16; [2]) of 966 nM and an EC50 (DENV2 replicon; Huh-7 replicon cells, 48 hours) of over 50000 nM. It also gave an EC50 (RSV A2; [3]) of 879 nM.

`C[C@H](NP(=O)(OC[C@@]1(C#N)O[C@@H](c2ccc3c(N)ncnn23)[C@H](O)[C@@H]1O)Oc1ccccc1)C(=O)O[C@@H]1CCNC1` (mixture of isomers) [Example 137, (2S)—(R)-pyrrolidin-3-yl 2-(((((2R,3S,4R,5S)-5-(4-aminopyrrolo[2,1-f][1,2,4]triazin-7-yl)-2-cyano-3,4-dihydroxytetrahydrofuran-2-yl)methoxy)(phenoxy)phosphoryl)amino)propanoate] gave an EC50 (RSV strain A2; [1]) of 3690 nM, an EC50 (HRV16; [2]) of 27000 nM and an EC50 (DENV2 replicon; Huh-7 replicon cells, 48 hours) of over 50000 nM. For the same molecule, the EC50 (RSV A2; [3]) was over 5000 nM.

For `C[C@H](NP(=O)(OC[C@@]1(C#N)O[C@@H](c2ccc3c(N)ncnn23)[C@H](O)[C@@H]1O)Oc1ccccc1)C(=O)OC1COC1` (stereo partly drawn) [Example 44, oxetan-3-yl ((((2R,3S,4R,5S)-5-(4-aminopyrrolo[2,1-f][1,2,4]triazin-7-yl)-2-cyano-3,4-dihydroxytetrahydrofuran-2-yl)methoxy)(phenoxy)phosphoryl)-L-alaninate], the EC50 (RSV strain A2; [1]) was 998 nM, the EC50 (HRV16; [2]) was 4260 nM and the EC50 (RSV A2; [3]) was 1800 nM.

`C[C@@H](NP(=O)(OC[C@@]1(C#N)O[C@@H](c2ccc3c(N)ncnn23)[C@H](O)[C@@H]1O)Oc1ccccc1)C(=O)O[C@H]1CC[C@H](C(F)(F)F)CC1` (single isomer, unassigned) [Example 196] showed an EC50 (RSV strain A2) of 4130 nM, an EC50 (HRV16; [5]) of 7540 nM and an EC50 (RSV A2) of 1320 nM.

`COC(=O)[C@H](C)NP(=O)(OC[C@@]1(C#N)O[C@@H](c2ccc3c(N)ncnn23)[C@H](O)[C@@H]1O)Oc1ccc(C[C@H](N)C(=O)OC)cc1` (single isomer, unassigned) [Example 62] gave an EC50 (RSV strain A2) of 4520 nM, an EC50 (HRV16; [5]) of 8570 nM and an EC50 (RSV A2) of over 5000 nM.

Molecule `CCCCCCCCCCCCCCCC(=O)OCC(COP(=O)(O)OC[C@@]1(C#N)O[C@@H](c2ccc3c(N)ncnn23)[C@H](O)[C@@H]1O)OC(=O)CCCCCCCCCCCCCCC` (stereo partly drawn) [Example 152, 3-(((((2R,3S,4R,5S)-5-(4-aminopyrrolo[2,1-f][1,2,4]triazin-7-yl)-2-cyano-3,4-dihydroxytetrahydrofuran-2-yl)methoxy)(hydroxy)phosphoryl)oxy)propane-1,2-diyl dipalmitate] has an EC50 (RSV strain A2; [4]) of over 5000 nM, an EC50 (HRV16; [5]) of over 5000 nM and an EC50 (RSV A2; [4]) of 1780 nM.

With `C[C@H](N[P@@](=O)(OC[C@@]1(C#N)O[C@@H](c2ccc3c(N)ncnn23)[C@H](O)[C@@H]1O)Oc1ccccc1)C(=O)OC1CCCCC1` (single isomer, unassigned) [Example 5] the EC50 (RSV strain A2; [1]) was 2740 nM, the EC50 (HRV16; [2]) was 654 nM and the EC50 (RSV A2; [3]) was 630 nM.
